This note sets out measurements from article PMC10709440, “High-throughput ligand profile characterization in novel cell lines expressing seven heterologous insect olfactory receptors for the detection of volatile plant biomarkers” (Scientific Reports, 2023).

Assay [1] deals with T1, Drosophila OR71a (Drosophila melanogaster, UniProt Q9VUK5).
T1 construct: expressed in transfected cells
T1 sequence (Q9VUK5 1-378): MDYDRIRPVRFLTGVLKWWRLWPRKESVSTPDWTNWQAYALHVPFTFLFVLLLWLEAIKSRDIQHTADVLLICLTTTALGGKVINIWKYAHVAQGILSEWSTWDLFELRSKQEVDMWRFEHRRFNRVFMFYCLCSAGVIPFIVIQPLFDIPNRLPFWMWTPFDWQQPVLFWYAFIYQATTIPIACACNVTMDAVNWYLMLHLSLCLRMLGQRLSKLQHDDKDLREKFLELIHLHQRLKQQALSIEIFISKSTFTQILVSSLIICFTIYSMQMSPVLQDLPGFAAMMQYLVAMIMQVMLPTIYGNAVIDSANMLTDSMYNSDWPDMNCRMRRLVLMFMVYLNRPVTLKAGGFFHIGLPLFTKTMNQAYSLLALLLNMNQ
T1 sequence (Q9VNB5 1-486 partner): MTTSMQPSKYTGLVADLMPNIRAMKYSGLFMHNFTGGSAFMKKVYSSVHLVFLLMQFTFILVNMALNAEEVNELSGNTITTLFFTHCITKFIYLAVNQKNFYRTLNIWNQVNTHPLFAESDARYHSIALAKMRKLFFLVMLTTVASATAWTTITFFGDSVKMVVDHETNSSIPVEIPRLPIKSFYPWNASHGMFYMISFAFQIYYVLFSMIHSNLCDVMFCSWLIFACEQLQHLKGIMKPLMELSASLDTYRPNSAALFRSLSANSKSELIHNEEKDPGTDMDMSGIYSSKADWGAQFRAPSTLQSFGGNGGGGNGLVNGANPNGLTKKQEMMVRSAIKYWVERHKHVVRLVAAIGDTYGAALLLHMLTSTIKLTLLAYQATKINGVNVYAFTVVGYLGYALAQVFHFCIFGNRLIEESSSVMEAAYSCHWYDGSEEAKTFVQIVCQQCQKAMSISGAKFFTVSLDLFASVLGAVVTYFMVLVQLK
Description: Calcium ion fluorescence (GCaMP6) assay, OR71a stable HEK293 cell line. In kind it is cell-based. To be noted: for activation at 1 µM / activation at 10 µM / activation at 100 µM: HEK293, read-out: OR71a response (VUAA1-normalized response); for Average response / OR71a response (VUAA1-normalized) at 1 μM / OR71a response (VUAA1-normalized) at 10 μM / OR71a response (VUAA1-normalized) at 100 μM: OR71a cell line; for Average response: VUAA1-normalized response, mean of biological replicates. In outline: (§1)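 Responses are VUAA1-normalized ΔF: each VOC-evoked calcium signal, (FMAX−F0)/F0 over 30 s after injection, divided by the same line's mean 50 µM VUAA1 response. Cells were doxycycline-induced HEK293 with GCaMP6 and the cognate Drosophila OR, in HEPES buffer pH 7.3; ligands tested 0.01–100 μM.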

In assay [2] the target is T2, Drosophila OR49b (Drosophila melanogaster, UniProt Q9V6H2).
T2 construct: expressed in transfected cells
T2 sequence (Q9V6H2 1-375): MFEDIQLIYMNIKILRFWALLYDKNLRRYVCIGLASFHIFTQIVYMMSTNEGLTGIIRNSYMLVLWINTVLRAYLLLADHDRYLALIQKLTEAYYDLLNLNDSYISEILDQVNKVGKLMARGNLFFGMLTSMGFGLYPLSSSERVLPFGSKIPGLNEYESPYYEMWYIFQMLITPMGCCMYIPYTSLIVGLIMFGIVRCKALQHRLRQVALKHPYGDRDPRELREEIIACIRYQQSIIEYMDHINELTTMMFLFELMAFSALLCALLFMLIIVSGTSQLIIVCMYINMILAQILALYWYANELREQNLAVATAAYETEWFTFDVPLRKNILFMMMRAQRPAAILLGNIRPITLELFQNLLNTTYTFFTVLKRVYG
T2 sequence (Q9VNB5 1-486 partner): T1 sequence (Q9VNB5 1-486 partner)
The assay can be described thus: cell-based. To be noted: for activation at 1 µM / activation at 10 µM / activation at 100 µM: HEK293; for Average response / OR49b response (VUAA1-normalized) at 1 μM / OR49b response (VUAA1-normalized) at 10 μM / OR49b response (VUAA1-normalized) at 100 μM: OR49b cell line; for Average response: mean of biological replicates. In outline: as §1

Where [3] appears, read: concentration 1, normalized fluorescence change, values below 0.05 threshold given as 0.
[4] abbreviates: concentration 10, normalized fluorescence change, values below 0.05 threshold given as 0.
Where [5] appears, read: concentration 100, normalized fluorescence change, values below 0.05 threshold given as 0.
The mark [6] stands for this setting: VOC concentration 1 μM, read-out: OR49b response (VUAA1-normalized response).
Setting [7] is: VOC concentration 10 μM, read-out: OR49b response (VUAA1-normalized response).
The mark [8] stands for this setting: VOC concentration 100 μM, read-out: OR49b response (VUAA1-normalized response).
Setting [9] is: ligand concentration 1 (unit not given), threshold 0.05, below shown as 0.
Where [10] appears, read: ligand concentration 10 (unit not given), threshold 0.05, below shown as 0.
Setting [11] is: ligand concentration 100 (unit not given), threshold 0.05, below shown as 0.
Setting [12] is: ligand concentration 1 (unit not given), 0.05 threshold, values below shown as 0.
[13] abbreviates: ligand concentration 10 (unit not given), 0.05 threshold, values below shown as 0.
Where [14] appears, read: ligand concentration 100 (unit not given), 0.05 threshold, values below shown as 0.

Read-outs that look alike come from different tables or passages of the source.

Turning to `CCCCCO` [1-pentanol], the activation at 1 µM in assay [1] and in assay [2] (setting [6]) was 0% each time. For the same molecule, the activation at 10 µM in assay [1] and in assay [2] (setting [7]) was 0% each time. The activation at 100 µM in assay [1] and in assay [2] (setting [8]) was 0% in each case. Moreover, the Average response in assay [1] (cc. 1 µM) worked out at 0.0261; in assay [1] (cc. 10 µM), 0.00; in assay [1] (cc. 100 µM), 0.00; in assay [2] (odorant cc. 1 µM) it was 0.00; in assay [2] (odorant cc. 10 µM) it was 0.00; in assay [2] (odorant cc. 100 µM), 0.0167. Further, the “DF norm AVERAGE OR71a” value in assay [1] (setting [3]), in assay [1] (setting [4]) and in assay [1] (setting [5]) was 0 in each case. Moreover, the “DF norm AVERAGE OR49b” value in assay [2] worked out at 0.
For `C=CC(O)CCCCC` (stereo not drawn) [1-octen-3-ol], the activation at 1 µM in assay [1] and in assay [2] (setting [6]) was 0% throughout. Also, the activation at 10 µM in assay [1] and in assay [2] (setting [7]) was 0% in each case. In addition, the activation at 100 µM worked out at 5.55% in assay [1] and 0% in assay [2] (setting [8]). For the same molecule, the Average response in assay [1] (cc. 1 µM) came out at 0.00; in assay [1] (cc. 10 µM), 0.0223; in assay [1] (cc. 100 µM), 0.0555; in assay [2] (odorant cc. 1 µM), 0.00; in assay [2] (odorant cc. 10 µM), 0.0174; in assay [2] (odorant cc. 100 µM), 0.0145. Besides, the “DF norm AVERAGE OR71a” value in assay [1] (setting [3]) came out at 0; in assay [1] (setting [4]), 0; in assay [1] (setting [5]) it was 0.05555. In assay [2], the “DF norm AVERAGE OR49b” value worked out at 0.
For `CC1=CCC2CC1C2(C)C` (stereo not drawn) [alpha-pinene], the activation at 1 µM in assay [1] and in assay [2] (setting [6]) was 0% each time. Moreover, the activation at 10 µM in assay [1] and in assay [2] (setting [7]) was 0% each time. The activation at 100 µM in assay [1] and in assay [2] (setting [8]) was 0% in each case. In addition, the Average response came to 0.0368 in assay [1] (cc. 1 µM); 0.00 in assay [1] (cc. 10 µM); 0.00 in assay [1] (cc. 100 µM); 0.0281 in assay [2] (odorant cc. 1 µM); 0.00 in assay [2] (odorant cc. 10 µM); 0.00 in assay [2] (odorant cc. 100 µM). Also, the “DF norm AVERAGE OR71a” value in assay [1] (setting [9]), in assay [1] (setting [10]) and in assay [1] (setting [11]) was 0 throughout. For the same molecule, the “DF norm AVERAGE OR49b” value in assay [2] (setting [9]), in assay [2] (setting [10]) and in assay [2] (setting [11]) was 0 throughout.
In the case of `Cc1ccc(C)c(C)c1` [1,2,4-trimethylbenzene], the activation at 1 µM in assay [1] came to 0%; in assay [2] (1 μM VOC, 50 μM VUAA1 = 1, read-out: OR49b Average response (VUAA1-normalized)), 0%; in assay [2] (setting [6]), 0%. The activation at 10 µM in assay [1] is 0%; in assay [2] (10 μM VOC, 50 μM VUAA1 = 1, read-out: OR49b Average response (VUAA1-normalized)) it was 0%; in assay [2] (setting [7]), 0%. Further, the activation at 100 µM in assay [1] worked out at 0%; in assay [2] (100 μM VOC, 50 μM VUAA1 = 1, read-out: OR49b Average response (VUAA1-normalized)), 20%; in assay [2] (setting [8]) it was 20%. For the same molecule, the Average response is listed as 0.00 in assay [1] (cc. 1 µM); 0.00 in assay [1] (cc. 10 µM); 0.00 in assay [1] (cc. 100 µM); 0.00 in assay [2] (odorant cc. 1 µM); 0.00 in assay [2] (odorant cc. 10 µM); 0.20 in assay [2] (odorant cc. 100 µM). For the same molecule, the “DF norm AVERAGE OR71a” value in assay [1] (setting [3]), in assay [1] (setting [4]) and in assay [1] (setting [5]) was 0 in each case.
Consider `C=C(C)C1CCC2(C)OC2C1` (single isomer, unassigned; (+)) [(+)-limonene oxide], for which the Average response in assay [1] (cc. 1 µM) turned out to be 0.0247; in assay [1] (cc. 10 µM), 0.0256; in assay [1] (cc. 100 µM), 0.00; in assay [2] (odorant cc. 1 µM), 0.00; in assay [2] (odorant cc. 10 µM) it was 0.00; in assay [2] (odorant cc. 100 µM), 0.00. Further, the “OR71a response (VUAA1-normalized response)” value in assay [1] (VOC concentration 1 μM), in assay [1] (VOC concentration 10 μM) and in assay [1] (VOC concentration 100 μM) was 0.00 each time. In addition, the “DF norm AVERAGE OR71a” value in assay [1] (setting [3]), in assay [1] (setting [4]) and in assay [1] (setting [5]) was 0 each time. The “DF norm AVERAGE OR49b” value in assay [2] was 0. The “OR49b response (VUAA1-normalized response)” value in assay [2] (VOC concentration 1 μM), in assay [2] (VOC concentration 10 μM) and in assay [2] (VOC concentration 100 μM) was 0.00 throughout.
In the case of `CC/C=C\CCO` [Z-3-hexenol], the “OR71a response (VUAA1-normalized) at 1 μM” value in assay [1] (VOC concentration 1 μM) worked out at 0.00. Also, in assay [1] (VOC concentration 10 μM), the “OR71a response (VUAA1-normalized) at 10 μM” value is 0.00. In addition, the “OR71a response (VUAA1-normalized) at 100 μM” value in assay [1] (VOC concentration 100 μM) is 0.00. Further, in assay [2] (VOC concentration 1 μM), the “OR49b response (VUAA1-normalized) at 1 μM” value is given as 0.00. Besides, the “OR49b response (VUAA1-normalized) at 10 μM” value in assay [2] (VOC concentration 10 μM) is 0.00. The “OR49b response (VUAA1-normalized) at 100 μM” value in assay [2] (VOC concentration 100 μM) amounted to 0.00.
As for `CCCCCCCCCCC` [undecane], the “OR71a response (VUAA1-normalized) at 1 μM” value in assay [1] (VOC concentration 1 μM) stood at 0.00. The “OR71a response (VUAA1-normalized) at 10 μM” value in assay [1] (VOC concentration 10 μM) is 0.00. Further, the “OR71a response (VUAA1-normalized) at 100 μM” value in assay [1] (VOC concentration 100 μM) amounted to 0.00. Besides, the Average response in assay [1] (cc. 1 µM) was determined as 0.00; in assay [1] (cc. 10 µM) it was 0.00; in assay [1] (cc. 100 µM), 0.00847; in assay [2] (odorant cc. 1 µM), 0.00; in assay [2] (odorant cc. 10 µM), 0.00; in assay [2] (odorant cc. 100 µM), 0.0367. The “DF norm AVERAGE OR71a” value in assay [1] (setting [12]), in assay [1] (setting [13]) and in assay [1] (setting [14]) was 0 in each case. Also, the “OR49b response (VUAA1-normalized) at 1 μM” value in assay [2] (VOC concentration 1 μM) is 0.00. In addition, the “OR49b response (VUAA1-normalized) at 10 μM” value in assay [2] (VOC concentration 10 μM) is 0.00. The “OR49b response (VUAA1-normalized) at 100 μM” value in assay [2] (VOC concentration 100 μM) is listed as 0.00. Also, the “DF norm AVERAGE OR49b” value in assay [2] (setting [12]), in assay [2] (setting [13]) and in assay [2] (setting [14]) was 0 each time.
